Test results from paper PMC12459184, “Design, synthesis, and bioevaluation of pyrazole-containing tubulin polymerisation inhibitors based on conformational constraint strategy” (Journal of Enzyme Inhibition and Medicinal Chemistry, 2025).
Like-named read-outs stand apart in the source and are kept apart here.

What was measured:
tubulin = assay: In vitro tubulin polymerisation assay; assay type: biochemical
Experimental: To investigate the effect of compounds 4k and 5a on microtubule system, their tubulin polymerisation inhibition activities were evaluated using in vitro tubulin polymerisation assay.
The BK001 kit used in this test was purchased from Cytoskeleton Inc. (Denver, CO, USA). […] Then the mixtures were transferred to 37 °C and tubulin assembly was monitored (excitation wavelength: 360 nm; emission wavelength: 420 nm) at 1 min intervals for 90 min by a microplate reader.

[1] = test system: microtubule network in PC-3 cells; assay: Immunofluorescence assay of microtubule network; assay type: cell-based, human; details: 50 nM, 24 h
Experimental: To evaluate the effects of 4k and 5a on intracellular microtubule, immunofluorescence assay was carried out to observe the changes of microtubule network in cell.
PC-3 cells in logarithmic phase were harvested and seeded onto 12-well cell plates with round coverslip on the bottom of each well at a density of 3 × 10^4 cells per well, and were cultured for 24 h. […] The medium was removed, and cells were washed with PBS twice, fixed with 4% formaldehyde in PBS for 30 min, then the solution was removed. Cells were washed with PBS twice, permeabilized with 0.2% (v/v) Triton X-100 in PBS for 30 min, then the solution was removed. Cells were washed with PBS twice, blocking the cells in 5% bovine serum albumin (BSA) for 30 min. Then BSA was removed, and cells were incubated with the primary α-tubulin antibody (Santa Cruz, CA) containing 2% BSA (v/v, 1: 100) overnight at 4 °C.
The following steps were operated in dark environment. The antibody was removed, then cells were washed with PBST twice and were added FITC-conjugated anti-mouse secondary antibody diluted (1:100) with 2% BSA in PBS and incubated at room temperature for 4 h. The cells were then washed with PBST twice, stained with 4′,6-diamidino-2-phenylindole (DAPI) for 30 min at room temperature, and washed with PBS twice. The round coverslips at the bottom of wells were taken out, and the images were photographed by a confocal microscope.

PC-3 cells = assay: Transwell migration assay; assay type: cell-based, human; details: 24 h, relative to untreated cells
Experimental: Transwell migration assay was used on PC-3 cells to further investigate the effect of 4k and 5a on cell migration.
PC-3 cells in logarithmic phase were harvested and seeded onto six-well cell plates at a density of 4 × 10^4 cells per well, and were cultured for 24 h. […] Then these cells were harvested and seeded onto the top chambers of transwell filters (Corning) at a concentration of 4 × 10^4 cells with 200 μL of FBS-free medium per well in 24-well culture plates, while the bottom chambers were added 600 μL of medium containing 10% FBS. The cells were cultured for additional 24 h, then the cells that migrated to the bottom of the top chambers were fixed with 4% paraformaldehyde and subsequently stained with crystal violet solution. Images were taken by an inverted microscope and analysed by Fiji/ImageJ software.

Bax = assay: Western blot assay, Bax; assay type: cell-based, human; details: PC-3 cells
Experimental: (§1) The expression of cell apoptosis-related proteins (Bax, Bcl-2, and cleaved caspase-9) after treatment of 4k and 5a was also measured by western blot assay.
(§2) PC-3 cells in logarithmic phase were harvested and seeded onto culture plates, and were cultured for 24 h. […] The proteins of PC-3 cells were extracted by RIPA buffer containing 1% PMSF (Beyotime Biotechnology, China). The protein concentration was measured by BCA Assay Kit (SEVEN Biotech, China). Equal amounts and concentration of protein were diluted in 5× loading buffer (Beyotime, China) and denatured by boiled for 5 min. Protein samples were separated on 12.5% SDS-PAGE gels (EpiZyme, China) and transferred to PVDF membranes (Millipore Corporation, Billerica, MA, USA). The membranes were blocked in QuickBlockTM Block Buffer (SEVEN Biotech, China) for 10 min at room temperature. Then the membranes were incubated with the primary antibodies overnight at 4 °C, including Cyclin B1 (1:2000, Proteintech, China), CDK1 (1:5000, Proteintech, China), BAX (1:5000, Proteintech, China), Bcl2 (1:1000, Proteintech, China), Caspase 9/p35/p10 (1:1000, Proteintech, China), and β-actin (1:20 000, Proteintech, China). […] The protein signals were detected by using chemiluminescent reagents kit (NCM Biotech, China) and visualised with ChemiDocImaging System (Tanon 5200, China). Protein expressions was quantified by using Fiji/ImageJ software.

A549 cells = assay: MTT antiproliferative assay, A549; assay type: cell-based; details: Homo sapiens, 72 h drug exposure, read-out: IC50 (μM) ± SD A549
Experimental: All cell lines tested in this study were purchased from the American Type Culture Collection (ATCC, Manassas, VA). SGC-7901 (human gastric adenocarcinoma), HCT-116 (human colon carcinoma), and A549 (human pulmonary carcinoma) cells were cultured in RPMI-1640 medium containing 10% foetal serum (FBS) and 1% penicillin-streptomycin solution (100×). MCF-7 (human breast carcinoma) cells were cultured in DMEM medium containing 10% foetal serum (FBS) and 1% penicillin-streptomycin solution (100×). PC-3 (human prostate carcinoma) cells were cultured in Ham’s F-12K medium containing 10% foetal serum (FBS) and 1% penicillin-streptomycin solution (100×). All cells were cultured at 37 °C in a humidified atmosphere containing 5% CO2.
(§3) Cells grown in logarithmic phase were harvested and seeded onto 96-well cell plates at a density of 4 ∼ 5 × 10^3 cells per well (various from cell type) and were cultured for 24 h. Different concentrations of compounds were added into the wells, and the cells were cultured for another 72 h. The medium was removed, then 20 μL of MTT (5 mg/mL in PBS) was added to each well and the cells were incubated for 4 h. 150 μL of DMSO was added to each well to dissolve the formazan, and the absorbance at 490 nm of each well was measured by a microplate reader. IC50 values were calculated by SPSS software.

human liver cells (L02) = assay: MTT toxicity assay, normal cells L02; assay type: cell-based; details: for IC50: Homo sapiens, read-out: IC50 (μM) ± SD L02; for SI-L: SI-L = IC50 (L02)/IC50 (PC-3)
Experimental: The toxicity of compounds 4k and 5a was also tested by using human umbilical vein endothelial cells (HUVEC) and human liver cells (L02).
as §3

PC-3 cell line = assay: MTT cell viability after 24 h; assay type: cell-based; details: Homo sapiens, read-out: cell viability
Experimental: An MTT assay was made on PC-3 cell line to test the cell viability after treated with different concentrations of compounds 4k and 5a after 24 h which was the same period as immunofluorescence assay.

cleaved caspase-9 = assay: Western blot assay, cleaved caspase-9; assay type: cell-based, human; details: PC-3 cells, dose-dependent manner
Experimental: as §1, §2

Row | SMILES | effect on tubulin polymerisation (fluorescence intensity) (tubulin; 5 μM and 10 μM) | tubulin polymerisation inhibitory potency compared with colchicine (3 μM) (tubulin; 5 μM and 10 μM) | effect on microtubule network [1] | percentage of migrated cells (PC-3 cells; PC-3, 5 nM) [%] | percentage of migrated cells (PC-3 cells; PC-3, 10 nM) [%] | percentage of migrated cells (PC-3 cells; PC-3, 20 nM) [%] | expression of Bax (Bax; western blot, 20, 40 nM) | IC50 (A549 cells) [µM] | IC50 (human liver cells (L02); 72 h drug exposure, MTT assay, normal cells) [µM] | SI-L (human liver cells (L02)) | viability at 0.00051 µM (PC-3 cell line; PC-3, MTT, 24 h, 0.51 nM) [%] | viability at 1.111 µM (PC-3 cell line; PC-3, MTT, 24 h, 1111 nM) [%] | level of cleaved caspase-9 (cleaved caspase-9) | effect on tubulin polymerisation (fluorescence intensity) (tubulin; 10 μM and 20 μM) | tubulin polymerisation inhibitory potency compared with colchicine (3 μM) (tubulin; 20 μM) | expression of Bax (Bax; western blot, 10, 20, 40 nM) | IC50 (human liver cells (L02); 72 h) [µM] | viability at 0.00051 µM (PC-3 cell line; PC-3, 24 h) [%] | viability at 1.111 µM (PC-3 cell line; PC-3, 24 h) [%]
1 | COc1cc(C(=O)c2nn(-c3ccc(N)cc3)cc2N)cc(OC)c1OC [4k, (4-amino-1–(4-aminophenyl)-1H-pyrazol-3-yl)(3,4,5-trimethoxyphenyl)methanone] | inhibition of tubulin polymerisation | higher potency than colchicine | microtubule network was destroyed | 60.4 | 25.7 | 18.7 | significantly increased | 0.04 ± 0.012 | 0.025 ± 0.008 | 1.713 | 91.6 | 41.6 | increase | – | – | – | – | – | –
2 | COc1cc(C2=NCC(=O)Nc3cn(-c4ccccc4)nc32)cc(OC)c1OC [5a, 2-Phenyl-8–(3,4,5-trimethoxyphenyl)-2,6-dihydropyrazolo[4,3-e][1,4]diazepin-5(4H)-one] | – | – | microtubule network was destroyed | 53.6 | 49.1 | 27.8 | – | 0.063 ± 0.017 | – | 35.00 | – | – | increase | inhibition of tubulin polymerisation | superior inhibitory potency compared to colchicine | significantly increased | 0.204 ± 0.056 | 76.6 | 39.6
